Test results: paper PMC6568278 (Chemical Science, 2019)

Tests used:
Format in all cases: cell-based
rat aortic VSMCs = experiment: PDGF-induced VSMC proliferation; conditions: PDGF-activated rat aortic VSMCs
NF-κB = conditions: HEK-293/NF-κB-luc cells
human umbilical vein ECs = experiment: Endothelial cell; conditions: 30 μM

Structure (SMILES) | VSMC proliferation inhibition (in words) (rat aortic VSMCs) | NF-κB inhibition (in words) (NF-κB) | EC proliferation inhibition (in words) (human umbilical vein ECs)
COc1ccc(C[C@H]2CO[C@H](c3ccc(OC)c(OC)c3)[C@H]2COC(=O)C=C(C)C)cc1OC [1b, ((2S,3R,4R)-4-(3,4-Dimethoxybenzyl)-2-(3,4-dimethoxyphenyl)tetrahydrofuran-3-yl)methyl 3-methylbut-2-enoate] | remained unaffected | much more suppressive effect | 
COc1ccc(C[C@H]2CO[C@H](c3ccc(OC)c(OC)c3)[C@H]2COC(=O)CC(C)C)cc1OC [1c] | no effect | similarly strong inhibition to 1b | 
C/C=C(/C)C(=O)OC[C@H]1[C@@H](Cc2ccc(C(F)(F)F)cc2)CO[C@@H]1c1ccc(F)cc1 [1j, (Z)-((2S,3R,4R)-2-(4-Fluorophenyl)-4-(4-(trifluoromethyl)benzyl)tetrahydrofuran-3-yl)methyl 2-methylbut-2-enoate] |  | no inhibition | no inhibition
COc1ccc([C@H]2OC[C@H](Cc3ccc(C(C)(C)C)cc3)[C@@H]2CO)cc1OC [7b, ((2S,3R,4R)-4-(4-(tert-Butyl)benzyl)-2-(3,4-dimethoxyphenyl)tetrahydrofuran-3-yl)methanol] | much more active | inactive | 
